Measured values from US20030199671A1, “Binding molecules for Fc-region polypeptides” (priority 2001, published 2003).
Positions of bridges follow the written chain, without caps; N, C: chain ends. Residues, ends and D or L forms follow the SMILES beside them.

Columns and labels:
human plasma IgG1 = target: T1, human plasma IgG1 (Homo sapiens, UniProt P01857); assay: Fluorescence anisotropy binding, fluorescein-labeled peptide
T1 construct: the individual human plasma IgG isoforms: IgG1, IgG2, IgG3, or IgG4; purchased Calbiochem; host or cells: human plasma
Experimental: (§1) All measurements were performed in 384 well microplates with 20 nM fluorescein-labeled peptide and various concentrations of the IgG isoform in a volume of between 10 and 20 μl using a Tecan Polarion fluorescence polarization plate reader. All binding buffers included 0.01% (v/v) Tween 20 to prevent peptide adsorption to the microplate. The binding mixture was equilibrated for 10 minutes in the microplate at 30° C. prior to performing the measurement.
(§2) Peptides were synthesized, fluorescein-labeled and HPLC purified as described above. Binding studies were performed using either a mixture of human plasma IgG isoforms (the Fc protein) or the individual human plasma IgG isoforms: IgG1, IgG2, IgG3, or IgG4.
(§3) Measurements were performed in 384-well microplates with 2 nM fluorescein-labeled peptide and a varied concentration of the IgG isoform target in a volume of 10 μl using a Tecan Polarion fluorescence polarization plate reader. The Fc binding buffer was 50 mM Tris-HCl, 200 mM NaCl, pH 8.0, 0.01% Tween 20. The IgG binding buffer was PBS with 0.01% Tween 20. The binding mixtures were equilibrated for 10 minutes in the microplate at 30° C. prior to performing the measurements.

human plasma IgG2 = target: T2, human plasma IgG2 (Homo sapiens, UniProt P01859); assay: as above
T2 construct: the individual human plasma IgG isoforms: IgG1, IgG2, IgG3, or IgG4; purchased Calbiochem; host or cells: human plasma
Experimental: as §1, §2, §3

human IgG1 [1] = target: T3, human IgG1 (Homo sapiens, UniProt P01857); assay: Column capture from conditioned CHO cell culture supernatant containing 5% fetal bovine serum; format: binding; conditions: SEC-HPLC; load 93% monomer
T3 construct: all human subtypes derived from myeloma patients; purchased Calbiochem 400120; host or cells: myeloma patients
Experimental: Human IgG1 (93% monomer) was spiked into conditioned CHO media to 50 μg/ml and 5 ml (250 μg total) was loaded onto a 350 μl mini-column as described above. The column was washed to baseline with PBST, pH 7.2 and the flowthrough fraction collected. Bound IgG was eluted with 0.1M sodium bicarbonate buffer, pH 9.0, and the column cleaned with 0.1M CAPS, pH 11.5. The eluted and clean fractions were quickly neutralized to ˜pH 7.2 and assayed for mass recovery by SEC-HPLC. Thus, an 80% recovery (98% monomer) was obtained in the eluted fraction. The column load, flowtbrough, elution and cleaning fractions were further analyzed by electrophoresis (SDS-PAGE), Coomassie stain and Western analysis for the presence of human and bovine IgG.

hIgG1 = target: T4, hIgG1 (Homo sapiens, UniProt P01857); assay: Mini-chromatography column binding (dynamic conditions); conditions: 350 μl column, human IgG1 spiked into PBST, pH 7.2
T4 construct: purchased Calbiochem 400120; host or cells: human myeloma patients
Experimental: (§4) Thus, 250 μg of target (hIgG1, hIgG2, hIgG3, hIgG4, goat IgG and bovine IgG) at 0.250 mg/ml in PBST, pH 7.2 or TBST, pH 7.3 was loaded onto a 350 μl column (3×50 mm) run at 0.200 ml/min. flowrate (170 cm/hr). Flowthrough, elution and cleaning fractions were collected and assayed for total protein recovery by size-exclusion HPLC. Percentage mass balance was also determined to be 90-100% on average.
(§5) For these experiments, 350 μl columns (3×50 mm) were packed with each media. The columns were tested with human Fc fragments or human IgG1 (Calbiochem, 401104 and 400120 respectively) spiked into PBST, pH 7.2 at a concentration of 0.5 g/l. 65 μg of Fc was loaded onto each column. After loading, the columns were washed with PBST, pH 7.2, eluted with 30 mM H3PO4, 150 mM NaCl, pH 2.0 and cleaned with 0.1M CAPS, pH 11.5 buffer (3-[Cyclohexylamino]-1-propane-sulfonic acid). Fractions collected were immediately neutralized to pH ˜7.2 with 2.0 M Tris, pH 8.0. All column operations were conducted at 200 μl/min (170 cm/hr).

human Fc fragments = assay: Mini-chromatography column capture from PBST; format: binding; conditions: 350 μl column, Fc spiked into PBST, pH 7.2
Experimental: as §5

IgG4 = IgG4 (Homo sapiens, UniProt P01861); assay: Competition between synthetic peptides and Protein A for Fc binding; set-up: the individual human plasma IgG isoforms: IgG1, IgG2, IgG3, or IgG4; purchased Calbiochem; host or cells: human plasma; key: NB: no detected binding.; ?: partial decrease in anisotropy with added competitor; conditions: 5 mg/ml protein A
Experimental: Cross-competition studies between peptides were performed using 20 nM fluorescein-labeled peptide and 1-2 μM IgG1, IgG2, IgG3, or IgG4 in the presence and absence of a maximum of 100 μM unlabeled peptide or 5 mg/ml protein A.
This is consistent with the fact that Protein A is known not to bind human IgG3.

human IgG1 [2] = target: T3, human IgG1; assay: Column capture out of tobacco extract; format: binding; conditions: from tobacco extract, size exclusion HPLC
Experimental: The ability of affinity media based on DX253 to capture human Fc and human IgG1 out of tobacco extract was evaluated in separate experiments. The tobacco extract used was a representative concentration blank lot (CropTech, lot NV100-136). Human Fc or IgG1 was spiked into the tobacco extract at 50 μg/ml. 100 μg (2 ml) was loaded onto a 350 μl column packed the DX253 media at 200 μl/min. (170 cm/hr.). Prior to loading, the column had been equilibrated with 50 mM Tris buffer containing 150 mM NaCl and 0.01% Tween 20, pH 7.3 (TBST, pH 7.3). After loading, the column was washed with 50 mM Tris buffer containing 1M NaCl, pH 7.3 followed by elution with 30 mM H3PO4, 150 mM NaCl, pH 2.0. The column was then cleaned with 0.1 M CAPS, pH 11.5 and separately with 30% isopropanol, 5% acetic acid in water, ˜pH 2.7. Collected fractions were neutralized immediately with 2M Tris, pH 8, prior to analysis by size exclusion HPLC.

bovine IgG = assay: Mini-chromatography column binding (dynamic conditions); conditions: 250 μg target, 170 cm/hr
Experimental: as §4

goat IgG = assay: as above; conditions: 250 μg target, 170 cm/hr
Experimental: as §4

[3] = pH 9.3, 0.01 M sodium bicarbonate
[4] = pH 9.3, .01 M sodium bicarbonate, 0.2 M NaCl

## CC[C@H](C)[C@@H]1NC(=O)[C@H](CC(C)C)NC(=O)[C@H](CCC(=O)O)NC(=O)CNC(=O)[C@H](Cc2c[nH]c3ccccc23)NC(=O)[C@H]([C@@H](C)O)NC(=O)[C@H]([C@@H](C)O)NC(=O)[C@H](Cc2ccc(O)cc2)NC(=O)[C@H](C(C)C)NC(=O)[C@@H](NC(=O)[C@H](CCSC)NC(=O)[C@H](Cc2c[nH]cn2)NC(=O)[C@H](CC(=O)O)NC(=O)[C@H](CC(=O)O)NC(=O)CNC(C)=O)CSSC[C@@H](C(=O)N[C@@H](CC(=O)O)C(=O)N[C@@H](CC(N)=O)C(=O)N[C@@H](Cc2c[nH]cn2)C(=O)N[C@@H](CCC(=O)O)C(=O)N2CCC[C@H]2C(=O)NCC(=O)N2CCC[C@H]2C(=O)N[C@@H](CCC(=O)O)C(=O)NCC(=O)NCC(=O)NCC(=O)N[C@@H](CCCCN)C(N)=O)NC(=O)[C@H](Cc2c[nH]c3ccccc23)NC1=O [DX249] (Ac-GDDHMCVYTTWGELIWCDNHEPGPEGGGK-NH2; disulfide 6-17)
Human plasma IgG1; 15% ethylene glycol
  Effect of including 15% ethylene glycol on binding to IgG1: no observed effect
Human plasma IgG1; pH 5.7, 0.01 M Tris-acetate, 0 M NaCl
  Kd: 0.074 ± 0.053 µM
Human plasma IgG1; pH 5.7, 0.01 M Tris-acetate, […] NaCl
  Kd: 0.84 ± 0.7 µM
Human plasma IgG1; pH 7.4, 0.01 M Tris-HCl
  Kd: 0.4 ± 0.06 µM
Human plasma IgG1; pH 7.4, PBS, […] NaCl
  Kd: 2.9 ± 0.9 µM
Human plasma IgG1; pH 7.4 PBS, […] NaCl, 15% EG
  Kd: 3.6 ± 2.5 µM
Human plasma IgG1; [3]
  Kd: > 10 µM
Human plasma IgG1; [4]
  Kd: > 10 µM
Human plasma IgG2; pH 7.4, PBS, […] NaCl
  Kd: 1.1 ± 0.3 µM
Human plasma IgG2; [3]
  Kd: > 10 µM
Human IgG1 [1]
  Monomer in the eluted fraction: 98%

## CC(=O)NCC(=O)N[C@@H](CC(=O)O)C(=O)N[C@@H](CC(=O)O)C(=O)N[C@@H](CC(=O)O)C(=O)N[C@@H](Cc1c[nH]cn1)C(=O)N[C@H]1CSSC[C@@H](C(=O)N2CCC[C@H]2C(=O)N[C@@H](Cc2c[nH]cn2)C(=O)NCC(=O)N[C@@H](CCC(=O)O)C(=O)N2CCC[C@H]2C(=O)NCC(=O)N2CCC[C@H]2C(=O)N[C@@H](CCC(=O)O)C(=O)NCC(=O)NCC(=O)NCC(=O)N[C@@H](CCCCN)C(N)=O)NC(=O)[C@H](CCC(=O)O)NC(=O)[C@H](CO)NC(=O)[C@H](CC(N)=O)NC(=O)[C@H](Cc2ccccc2)NC(=O)[C@H](Cc2c[nH]c3ccccc23)NC(=O)[C@H](CCC(=O)O)NC(=O)[C@H](CCCNC(=N)N)NC(=O)[C@H](Cc2ccccc2)NC(=O)[C@H](Cc2c[nH]c3ccccc23)NC(=O)[C@H](Cc2ccc(O)cc2)NC1=O [DX252] (Ac-GDDDHCYWFREWFNSECPHGEPGPEGGGK-NH2; disulfide 6-17 (inferred))
Human plasma IgG1; pH 7.4, 0.01 M Tris-HCl
  Kd: 2.1 to 3.4 µM
Human plasma IgG1; pH 7.4, PBS, […] NaCl
  Kd: 2.9 ± 1.6 µM
Human plasma IgG1; [3]
  Kd: > 10 µM
Human plasma IgG1; [4]
  Kd: > 10 µM
Human plasma IgG2; pH 5.7, 0.01 M Tris-acetate
  Kd: > 1 µM
Human plasma IgG2; pH 7.4, 0.01 M Tris-HCl
  Kd: 2.1 to 3.4 µM
Human plasma IgG2; [3]
  Kd: > 10 µM
hIgG1
  Capture efficiency, IgG1: 80%
Human Fc fragments
  Capture efficiency, Fc: 70%
IgG4
  Competition between labeled peptide and Protein A, IgG4: NB

## Ac-GDRRACSRDWSGALVWCAGHEPGPEGGGK-NH2 (not fully specified (bridges); printed as Ac-GDRRACSRDWSGALVWCAGHEPGPEGGGK-NH2; cysteine pairing not given here) [DX253]
Human IgG1 [2]
  % purity monomeric protein, IgG1: 89%

## Prot. A: immobilized recombinant Protein A (RepliGen Corp., product no. IPA-400), positive control [reference compound]
Bovine IgG
  Binding efficiency, bovine IgG: high
Goat IgG
  Binding efficiency, goat IgG: moderate
